Data on 33 molecules can be found in paper PMC12040169 (PLOS Biology, 2025).

This data set can be described thus: in vitro. Conditions: human, hela cells, % viability.
Turning to `CCOc1ccc(CN2CCN(CC(=O)Nc3cc(C)on3)CC2)cc1` [CBK306116], the viability at 28.5 h, 10 µM came out at 115%. As for `Cc1cccc(NCC2CCN(CC(=O)Nc3cc(C)on3)C2)n1` (stereo not drawn) [CBK306118], the viability at 28.5 h, 10 µM was 90.4%.

Take `Cc1ccnc(NCC2CCN(CC(=O)Nc3cc(C)no3)C2)c1` (stereo not drawn) [CBK306121]: the viability at 28.5 h, 10 µM was 91.3%. In the case of `Cc1cccn2cc(CC(=O)NCCNC(=O)OC(C)(C)C)nc12` [CBK306122], the viability at 28.5 h, 10 µM amounted to 100%. Consider `O=C(CCc1ccccc1F)NC1CCc2nccn2C1` (stereo not drawn) [CBK306124], for which the viability at 28.5 h, 10 µM is 113%.

For the molecule `CNC(=O)NC(=O)CN1CCC(CNc2ncccc2C#N)C1` (stereo not drawn) [CBK306126], the viability at 28.5 h, 10 µM was determined as 77.4%.

For the molecule `COC(=O)c1ccc(N2CCN(Cc3nnnn3C3CC3)C(C)C2)cc1` (stereo not drawn) [CBK306129], the viability at 28.5 h, 10 µM came out at 89.6%. Under `Cc1ccc(-c2nn(CCC#N)cc2C(=O)N2CCCCC2)cc1C` [CBK306131] stands 94.4%; under `CCOC(=O)c1cnn2c(O)cc(CN(CC(C)(C)O)C(C)C)nc12` [CBK306133], 93.6%; under `CC(NC(=O)CCc1cnn(C)c1)c1cccc(-n2ccnc2)c1` (stereo not drawn) [CBK306139], 97.3%. For `CC(=O)c1ccc(C)cc1OC(=O)C1CCCN(S(C)(=O)=O)C1` (stereo not drawn) [CBK306140], the viability at 28.5 h, 10 µM worked out at 115%.

On to `O=C(CN1CCCCC1Cn1cccn1)NCc1ccccn1` (stereo not drawn) [CBK306146], for which the viability at 28.5 h, 10 µM was 84%. As for `COc1ccc(CCNC(=O)CN2CCCC2Cn2cccn2)cc1` (stereo not drawn) [CBK306147], the viability at 28.5 h, 10 µM was determined as 92.1%. Under `CCOC(=O)c1sc2nc(C(C)N(C)Cc3ccco3)[nH]c(=O)c2c1C` (stereo not drawn) [CBK306148] stands 106%; under `CCOC(=O)C1CCCN(C(=O)Cn2c(C)nc3ccccc3c2=O)C1` (stereo not drawn) [CBK306150], 77.9%; under `Cc1csc(N2CCN(CC(O)COCc3ccco3)CC2)n1` (stereo not drawn) [CBK306151], 98.5%. Next, `Cc1ccccc1Nc1nc(N)nc(CN2CCCC2)n1` [CBK306152]: 102%; `CCn1cc(CN2CCCN(C(=O)c3cc(Cl)c[nH]3)CC2)cn1` [CBK306153]: 90.6%; `CCc1noc(CN2CCN(c3ccc(C(=O)OC)cc3)CC2C)n1` (stereo not drawn) [CBK306154]: 86.4%. Next, `Cc1ccnc2nc(C(=O)OC(C)C(=O)N3CCCCCC3)nn12` (stereo not drawn) [CBK306155]: 102%; `CN(C)C(=O)NCCNC(=O)c1c[nH]nc1-c1cc2ccccc2o1` [CBK306157]: 85.7%; `CCNS(=O)(=O)c1ccc2c(c1)N(Cc1ccc(CO)o1)CC2` [CBK306158]: 83.8%. On to `O=C(NCC1(O)CCSC1)c1c[nH]nc1-c1cc2ccccc2o1` (stereo not drawn) [CBK306159], for which the viability at 28.5 h, 10 µM was 88.3%.

Consider `CC(CN(C)C(=O)c1c[nH]nn1)Oc1ccc(Cl)c(Cl)c1` (stereo not drawn) [CBK306160], for which the viability at 28.5 h, 10 µM came to 87.5%. Next, `CC(=O)Nc1cccc(-n2nnnc2SCCCCCF)c1` [CBK306164]: 110%; `Cc1ccc(-c2nnc(NCc3cnn(C)c3C)o2)c(C)c1` [CBK306166]: 88.2%; `CC(c1ncc(Br)cn1)N1CCN(Cc2noc(C(C)(C)C)n2)CC1` (stereo not drawn) [CBK306168]: 87.4%. Next, `Cc1n[nH]nc1C(=O)N(C)CC(C)Oc1ccc(Cl)c(Cl)c1` (stereo not drawn) [CBK306173]: 85.2%; `Cc1ccc2c(c1)nc(CNC(=O)NCCCO)n2C` [CBK306174]: 86.1%; `CC1(C)CCCN(Cc2nnnn2-c2ccc(S(C)(=O)=O)cc2)CC1` [CBK306177]: 81.8%. Next, `CC1(C)CCN(Cc2nnnn2-c2ccc(S(C)(=O)=O)cc2)C1` [CBK306179]: 94.7%; `CN(C)c1ncccc1OC1CCN(c2ccnc(C3CC3)n2)C1` (stereo not drawn) [CBK306182]: 56.3%; `CCNS(=O)(=O)c1ccc2c(c1)N(Cc1nc(-c3ccco3)no1)CC2` [CBK306184]: 81.1%.
